# Test results published in patent US20050080113A1, “Medicinal compositions” (priority 2001, published 2005).
# Legend:
# human p38 MAP kinase = molecular target: T1, human p38 MAP kinase (Homo sapiens, UniProt Q16539); assay: Measurement of the p38 MAP kinase inhibitory activity, 32P uptake into Myelin Basic Protein (Reference Example F 2); assay type: biochemical; settings: active form p38 MAP kinase, 30° C. 60 minutes, read-out: IC50 (p38 MAP kinase inhibitory activity, uptake of 32P into acid insoluble fraction)
# T1 construct: made in house; host or cells: Sf-21 insect cells, baculovirus (BAC-HP38 co-infected with BAC-caMKK3)
# T1 sequence (Q16539 whole entry): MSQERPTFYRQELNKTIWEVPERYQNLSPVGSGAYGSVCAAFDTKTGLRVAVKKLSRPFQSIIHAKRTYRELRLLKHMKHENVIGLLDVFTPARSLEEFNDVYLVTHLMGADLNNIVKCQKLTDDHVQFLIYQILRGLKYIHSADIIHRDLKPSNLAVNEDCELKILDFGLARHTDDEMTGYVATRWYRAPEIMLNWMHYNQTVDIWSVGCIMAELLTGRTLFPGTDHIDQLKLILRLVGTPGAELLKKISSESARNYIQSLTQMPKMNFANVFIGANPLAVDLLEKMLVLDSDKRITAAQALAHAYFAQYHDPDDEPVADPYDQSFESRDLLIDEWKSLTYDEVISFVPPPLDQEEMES
# Procedure: The genetic manipulations described below were according to the methods described in the book (Maniatis et al., Molecular Cloning, Cold Spring Harbor Laboratory, 1989) or a method described in the protocol attached to the reagent.
# (1) Cloning of Human p38 MAP Kinase Gene and Preparation of Recombinant Baculovirus
# Cloning of human p38 MAP kinase gene was performed by a PCR method using a primer set P38 U: 5′-[…]-3′ [SEQ ID NO:9] and PAG-L: 5′-[…]-3′ [SEQ ID NO:10] made by reference to the base sequence of p38 MAP kinase gene reported by Han et al. (Science 265 (5173), 808 811 (1994)) and employing kidney cDNA (Toyobo, QUICK-Clone cDNA) as a template.
# A PCR reaction was performed by a Hot Start method using AmpliWax PCR Gem 100 (Takara Shuzo). As the lower mixed solution, 2 μL 10×LA PCR Buffer, 3 μL 2.5 mM dNTP solution, each 2.5 μL of 12.5 μM primer solution, and 10 μL sterile distilled water were mixed. As the upper mixed solution, 1 μL human cardiac cDNA (1 ng/mL) as a template, 3 μL 10×LA PCR Buffer, 1 μL 2.5 mM dNTP solution, 0.5 μL TaKaRa LA Taq DNA polymerase (Takara Shuzo), and 24.5 μL sterile distilled water were mixed. One AmpliWax PCR Gem 100 (Takara Shuzo) was added to the prepared lower mixed solution to treat at 70° C. for 5 minutes and for 5 minutes in an ice and, thereafter, the upper mixed solution was added to prepare a reaction solution for PCR. A tube containing the reaction solution was set at a thermal cycler (Perkin Elmer), which was treated at 95° C. for 2 minutes. Further, after repeating 35 times a cycle of 15 seconds at 95° C. and 2 minutes at 68° C., treatment was performed at 72° C. for 8 minutes. The resulting PCR product was subjected to agarose gel (1%) electrophoresis, 1.1 kb DNA fragment containing p38 MAP kinase gene was recovered from the gel and, thereafter, which was inserted into pT7Blue-T vector (Takara Shuzo) to make the plasmid pHP38.
# The 4.8 kb XhoI-KpnI fragment of the plasmid pFASTBAC1 (CIBCOBRL) and the 1.1 kb XhoI-Kpn fragment of the above plasmid pHP38 were ligated to make the plasmid pFBHP38.
# The plasmid pFBHP38 and BAC-TO-BAC Baculovirus Expression System (GIBCOBRL) were used to prepare the recombinant Baculovirus virusstock BAC-HP38.
# (2) Cloning of Human MKK3 Gene and Preparation of Recombinant Baculovirus
# Cloning of human MKK3 gene was performed by a PCR method using a primer set MKK-U: 5′-[…]-3′ [SEQ ID NO:11] and MKK-L: 5′-[…]-3′ [SEQ ID NO:12] made by reference to the base sequence of MKK3 gene reported by Derijard, B. et al., Science 267 (5198), 682 685 (1995) and using kidney cDNA (Toyobo, QUICK-Clone cDNA).
# A PCR reaction was performed by a Hot Start method using AmpliWax PCR Gem 100 (Takara Shuzo). As the lower mixed solution, 2 μL 10×LA PCR Buffer, 3 μL 2.5 mM dNTP solution, each 2.5 μL of 12.5 μM primer solution, and 10 μL sterile distilled water were mixed. As the upper mixed solution, 1 μL human kidney cDNA (1 ng/mL), 3 μL 10×LA PCR Buffer, 1 μL 2.5 mM dNTP solution, 0.5 μL TaKaRa LA taq DNA polymerase (Takara Shuzo) and 24.5 μL sterile distilled water were mixed. One AmpliWax PCR Gem 100 (Takara Shuzo) was added to the prepared lower mixed solution to treat at 70° C. for 5 minutes and for 5 minutes in ice and, thereafter, the upper mixed solution was added to prepare a reaction solution for PCR. A tube containing the reaction solution was set at a thermal cycler (Perkin Elmer), which was treated at 95° C. for 2 minutes. Further, after repeating 35 times a cycle of 15 seconds at 95° C. and 2 minutes at 68° C., treatment was performed at 72° C. for 8 minutes. The resulting PCR product was subjected to agarose gel (1%) electrophoresis, 1.0 kb DNA fragment containing MKK3 gene was recovered from the gel and, thereafter, which was inserted into pT7Blue-T vector (Takara Shuzo) to make the plasmid pHMKK3. […]
# TNF-α production [1] = assay: Measurement of inhibiting activity of TNF-α production in LPS-stimulated THP-1 cells, ELISA (Reference Example F 3); assay type: cell-based; settings: Homo sapiens, LPS 5 μg/mL, 4 hours, ELISA (R&D System)
# Procedure: (§1) Measurement of Inhibiting Activity of TNF-α Production
# After THP-1 cells which had been cultured in PRMI 1640 medium (manufactured by Life Technologies, Inc.) containing 1% non-activated bovine fetal serum (manufactured by Life Technologies, Inc., U.S.A.) and 10 mM HEPES (pH 7.5) seeded on a 96 well plate to 1×10^5 cells/well, 1 μL test compound dissolved in DMSO was added to there. After incubation at 37° C. for 1 hour in a CO2 incubator, LPS (Wako Pure Chemicals) was added to the final concentration 5 μg/mL. After cultured at 37° C. for 4 hours in a CO2 incubator, the supernatant was obtained by centrifugation. The concentration of TNF-α in the supernatant was measured with ELISA (R&D System, Quantikine Kit). The concentration (IC50 value) necessary for inhibiting TNF-α production by 50% was calculated by PRIMS 2.01 (Graphpad Software).
# [2] = system: osteoclast formation in mouse bone marrow cells; assay: Inhibitory action of osteoclast formation (TRAP positive multinucleated cells, bone marrow cell culture), Example 2; assay type: cell-based; settings: for Osteoclast count (/well): 6 days, TRAP positive multinucleated cells, average ± standard deviation (N = 4-5)
# Procedure: Bone marrow cells were collected from the tibia of 8-week-old male ddY mouse and suspended in αMEM medium containing 10% FBS and sown in a 24 well plate at a density of 10^6 cells/0.5 ml/well. After static culture overnight, the medium was changed to the above-mentioned medium containing 10^−8 M 1α, 25 (OH)2D3 or Reference Example D compound 16 1 at 0.01, 0.1, 1 or 10 μM, respectively and further cultured for 6 days. After the completion of the culture, the cells were fixed and subjected to staining of tartrateresistant acid phosphatase (TRAP), which is a differentiation index of osteoclast, and TRAP positive multinucleated cells with three or more nuclei were counted as osteoclasts with a microscope.
# [3] = Test using rat yeast-induced pain model animal (pain threshold, pressure device), Example 1; assay type: in vivo; settings: oral, pain threshold 2 hours after administration
# Procedure: Male Sprague-Dawley rats (4 week-old, Clear Japan) were used. A 20% yeast physiological saline solution (0.1 ml) was subcutaneously injected into right hind pedal sole to induce inflammation in the right hind pedal sole. One hour later, 0.5% aqueous methyl cellulose or Reference Example D compound 16 1 suspended in 0.5% aqueous methyl cellulose was orally administered (0.5 ml/100 g body weight). After 2 hours from sample administration, pain threshold value was measured based on false escape reaction using a pressure device. A group contained 6 rats.
# TNF-α production [4] = assay: Measurement of inhibiting activity of TNF-α production in LPS-stimulated THP-1 cells, ELISA (Reference Example C 2); assay type: cell-based; settings: Homo sapiens, LPS 5 μg/mL, 4 hours, read-out: IC50 (concentration necessary for inhibiting TNF-α production by 50%)
# Procedure: as §1
# After THP-1 cells which had been cultured on PRMI 1640 medium (manufactured by Life Technologies, Inc.) containing 1% inactivated bovine fetal serum (manufactured by Life Technologies, Inc., U.S.A.) and 10 mM HEPES (pH 7.5) seeded on a 96 well-plate to 1×10^5 cells/well, 1 μL test compound dissolved in DMSO was added. After incubation at 37° C. for 1 hour in a CO2 incubator, LPS (Wako Pure Chemicals) was added to the final concentration 5 μg/mL. After cultured at 37° C. for 4 hours in a CO2 incubator, the supernatant was obtained by centrifugation. The concentration of TNF-α in the supernatant was measured by ELISA (R&D Systems, Quantikine Kit). The concentration (IC50 value) of the test compound necessary for inhibiting TNF-α production by 50% was calculated using PRIMS 2.01 (Graphpad Software).
Structure (SMILES),IC50 (human p38 MAP kinase),IC50 (TNF-α production [1]),IC50 (TNF-α production [4]),melting point,further results
"COc1ccc(-c2nc(NC(=O)c3cccnc3)sc2-c2ccnc(NC(=O)c3cccnc3)c2)cc1 [D 3, N-[4-(4-methoxyphenyl)-5-[2-[(3-pyridylcarbonylamino)]-4-pyridyl]-1,3-thiazol-2-yl]nicotinamide]",0.023 µM,0.026 µM,–,–,–
"CCc1nc(-c2cccc(C)c2)c(-c2ccnc(NC(=O)c3ccccc3)c2)s1 [D 16-1, N-[4-[2-ethyl-4-(3-methylphenyl)-1,3-thiazol-5-yl]-2-pyridyl]benzamide]",–,–,–,–,"number of osteoclasts ([2]; 0.01, 0.1, 1 or 10 μM): decreased in a dose-dependent manner; IC50 ([2]; 144 h, mouse bone marrow cells, 1α,25(OH)2D3, 6 days culture, read-out: IC50 value against formation of osteoclast): 0.3 µM; formation of osteoclast ([2]; at 10 μM): barely observed; Osteoclast count (/well) ([2]; concentration 0.01 μM, mouse bone marrow cells): 183.8 ± 2.9 /well; Osteoclast count (/well) ([2]; concentration 0.1 μM, mouse bone marrow cells): 140.8 ± 7.6 /well; Osteoclast count (/well) ([2]; concentration 1 μM, mouse bone marrow cells): 72.4 ± 4.4 /well; Osteoclast count (/well) ([2]; concentration 10 μM, mouse bone marrow cells): 0.6 ± 0.4 /well; concentration from which the action on osteoclast number was found significantly ([2]; mouse bone marrow cells, 0.01-10 μM tested): 0.1 µM; antinociceptive effect [3]: dose-dependent antinociceptive effect; minimum effective dose (antinociceptive effect) [3]: 10 mg/kg"
"COc1ccc(-c2nc(N)sc2-c2ccnc(NC(=O)c3ccccc3)c2)cc1 [D 4, N-[4-[2-amino-4-(4-methoxyphenyl)-1,3-thiazol-5-yl]-2-pyridyl]benzamide]",0.02 µM,0.014 µM,–,–,–
"CNc1nc(-c2ccc(OC)cc2)c(-c2ccncc2)s1 [13-16, N-methyl [4-(4-methoxyphenyl)-5-(4-pyridyl)-1,3-thiazol-2-yl]amine]",–,–,0.14 µM,177 to 178 °C,–
"CNc1nc(-c2ccc(Cl)cc2)c(-c2ccncc2)s1 [13-70, N-methyl [4-(4-chlorophenyl)-5-(4-pyridyl)-1,3-thiazol-2-yl]amine]",–,–,0.18 µM,224 to 225 °C,–
"Cc1cc(C)cc(-c2nc(N)sc2-c2ccnc(NCc3ccccc3)c2)c1 [D 6, N-[4-[2-amino-4-(3,5-dimethylphenyl)-1,3-thiazol-5-yl]-2-pyridyl]benzylamine]",0.023 µM,0.14 µM,–,–,–
